In PubChem BioAssay AID1259407 (Chemical Carcinogenesis Research Information System (CCRIS), 2018) one finds mutagenic call data, which are given here for five molecules.

Structures are written as SMILES. The source made the active and inactive calls. How the calls were made is not given here.

The subject of the data set is CCRIS mutagenicity, Ames/micronucleus/aberration tests. Nature of the data set: CCRIS mutagenicity studies.
Where [1] appears, read: Test System: AMES SALMONELLA TYPHIMURIUM, Strain/Indicator: TA98, Metabolic Activation: NONE, Method: PREINCUBATION
The mark [2] stands for this setting: Test System: AMES SALMONELLA TYPHIMURIUM, Strain/Indicator: TA100, Metabolic Activation: NONE, Method: PREINCUBATION
[3] abbreviates: Test System: AMES SALMONELLA TYPHIMURIUM, Strain/Indicator: TA98, Metabolic Activation: NONE, Method: STANDARD PLATE.

Regarding `CC(=O)c1ccccc1[N+](=O)[O-]`, the mutagenic call runs as follows: (Test System: AMES SALMONELLA TYPHIMURIUM, Strain/Indicator: TA98, Metabolic Activation: HAMSTER, LIVER, S-9, AROCLOR 1254 (10%), Method: PREINCUBATION) “inactive; negative”; under setting [1], “inactive; negative”; (Test System: AMES SALMONELLA TYPHIMURIUM, Strain/Indicator: TA98, Metabolic Activation: RAT, LIVER, S-9, AROCLOR 1254 (10%), Method: PREINCUBATION) “inactive; negative”; (Test System: AMES SALMONELLA TYPHIMURIUM, Strain/Indicator: TA98, Method: PREINCUBATION) “inactive; negative”; (Test System: AMES SALMONELLA TYPHIMURIUM, Strain/Indicator: TA100, Metabolic Activation: HAMSTER, LIVER, S-9, AROCLOR 1254 (10%), Method: PREINCUBATION) “inactive; negative”; under setting [2], “inactive; negative”. The mutagenic call was “inactive; negative” (Test System: AMES SALMONELLA TYPHIMURIUM, Strain/Indicator: TA100, Metabolic Activation: RAT, LIVER, S-9, AROCLOR 1254 (10%), Method: PREINCUBATION); “inactive; negative” (Test System: AMES SALMONELLA TYPHIMURIUM, Strain/Indicator: TA100, Method: PREINCUBATION); “inactive; negative” (Test System: AMES SALMONELLA TYPHIMURIUM, Strain/Indicator: TA1535, Metabolic Activation: HAMSTER, LIVER, S-9, AROCLOR 1254 (10%), Method: PREINCUBATION); “inactive; negative” (Test System: AMES SALMONELLA TYPHIMURIUM, Strain/Indicator: TA1535, Metabolic Activation: NONE, Method: PREINCUBATION); “inactive; negative” (Test System: AMES SALMONELLA TYPHIMURIUM, Strain/Indicator: TA1535, Metabolic Activation: RAT, LIVER, S-9, AROCLOR 1254 (10%), Method: PREINCUBATION); “inactive; negative” (Test System: AMES SALMONELLA TYPHIMURIUM, Strain/Indicator: TA1535, Method: PREINCUBATION). Further, the mutagenic call was “inactive; negative” (Test System: AMES SALMONELLA TYPHIMURIUM, Strain/Indicator: TA1537, Metabolic Activation: HAMSTER, LIVER, S-9, AROCLOR 1254 (10%), Method: PREINCUBATION); “inactive; negative” (Test System: AMES SALMONELLA TYPHIMURIUM, Strain/Indicator: TA1537, Metabolic Activation: NONE, Method: PREINCUBATION); “inactive; negative” (Test System: AMES SALMONELLA TYPHIMURIUM, Strain/Indicator: TA1537, Metabolic Activation: RAT, LIVER, S-9, AROCLOR 1254 (10%), Method: PREINCUBATION); “inactive; negative” (Test System: AMES SALMONELLA TYPHIMURIUM, Strain/Indicator: TA1537, Method: PREINCUBATION); “inactive; negative” (Test System: AMES SALMONELLA TYPHIMURIUM, Strain/Indicator: TA1538, Metabolic Activation: NONE, Method: PREINCUBATION); “inactive; negative” (Test System: AMES SALMONELLA TYPHIMURIUM, Strain/Indicator: TA1538, Method: PREINCUBATION).

`COc1cccc2c1C(=O)c1c(O)c3c(c(O)c1C2=O)CC(O)(C(=O)CO)CC3OC1CC(N2CCOCC2C#N)C(O)C(C)O1` (stereo not drawn): the mutagenic call runs as follows: (Test System: AMES SALMONELLA TYPHIMURIUM, Strain/Indicator: TA100, Metabolic Activation: RAT, LIVER, S-9, AROCLOR 1254) “inactive; negative”; (Test System: CHINESE HAMSTER V-79, Strain/Indicator: V-79/8-AZAGUANINE, Metabolic Activation: NONE) “active; positive”; (Test System: UDS RAT HEPATOCYTES, Strain/Indicator: THY INCORP, Metabolic Activation: NONE, Method: AUTOMATIC COLONY COUNTER) “active; positive”.

With `Nc1ccc(Oc2ccc(N)c(N)c2)cc1`, the mutagenic call under setting [1] is “inactive; negative”; the mutagenic call (Test System: AMES SALMONELLA TYPHIMURIUM, Strain/Indicator: TA98, Metabolic Activation: RAT, LIVER, S-9, PCB, Method: PREINCUBATION) was “active; positive”; the mutagenic call under setting [2] is “inactive; negative”; the mutagenic call (Test System: AMES SALMONELLA TYPHIMURIUM, Strain/Indicator: TA100, Metabolic Activation: RAT, LIVER, S-9, PCB, Method: PREINCUBATION) was “active; positive”.

Take `Nc1cnc2c(c1)nc1ccccn12`: the mutagenic call is, setting by setting: under setting [3], “inactive; negative”; (Test System: AMES SALMONELLA TYPHIMURIUM, Strain/Indicator: TA98, Metabolic Activation: RAT, LIVER, CYTOSOL, AROCLOR 1254, Method: STANDARD PLATE) “inactive; negative”; (Test System: AMES SALMONELLA TYPHIMURIUM, Strain/Indicator: TA98, Metabolic Activation: RAT, LIVER, MICROSOMES, AROCLOR 1254, Method: STANDARD PLATE) “inactive; negative”; (Test System: AMES SALMONELLA TYPHIMURIUM, Strain/Indicator: TA98, Metabolic Activation: RAT, LIVER, S-9, AROCLOR 1254, Method: STANDARD PLATE) “active; positive”.

As for `COCC(O)Cn1cc([N+](=O)[O-])nc1Cl` (stereo not drawn), the mutagenic call reads like this: under setting [3], “inactive; negative”; (Test System: AMES SALMONELLA TYPHIMURIUM, Strain/Indicator: TA98, Metabolic Activation: RAT, LIVER, S-9, Method: STANDARD PLATE) “active; positive”; (Test System: AMES SALMONELLA TYPHIMURIUM, Strain/Indicator: TA100, Metabolic Activation: NONE, Method: STANDARD PLATE) “active; positive”; (Test System: AMES SALMONELLA TYPHIMURIUM, Strain/Indicator: TA100, Metabolic Activation: RAT, LIVER, S-9, Method: STANDARD PLATE) “active; positive”.
